According to patent publication US11382956B2, “Amylin analogues” (Zealand Pharma A/S, priority 2016, dated 2022):
Numbered stars: 1 amine (or outer) side, 2 acyl side, 3 side chain; on linkers, the order of the positions; unused ones are H or OH. Bridge positions count the residues as written; N and C are the ends. Square brackets hold non-standard residues; d marks the D form. Peptide text beside a SMILES is read from it. * marks the point of attachment. C20 diacid = O=C(O)CCCCCCCCCCCCCCCCCCC(=O)*; γGlu = O=C(O)[C@H](CCC(=O)[*:2])N[*:1]; Hyp = O=C(O)[C@@H]1C[C@@H](O)CN1; NMeI = CC[C@H](C)[C@H](NC)C(=O)O; Aad = N[C@@H](CCCC(=O)O)C(=O)O; Orn = NCCC[C@H](N)C(=O)O; Sar = CNCC(=O)O

Columns and labels:
[1] = Pharmacokinetic (PK) profiling in rats; settings: male, Sprague Dawley, plasma; rat, single sc bolus 30 nmol/kg; read-out: in vivo half life t1/2 (plasma terminal elimination half-life) (converted)
Procedure: Sprague Dawley male rats were given a single subcutaneous (sc) bolus of each peptide to be tested, as specified below.
30 nmol/kg doses of compound were administered. Blood samples were drawn from the tail vein prior to dosing and at 24 and 96 hours after dosing. The rats were euthanized immediately after the last blood sampling by concussion and cervical dislocation.
The dosing vehicle used for each test peptide was a mannitol-containing histidine buffer (pH 7.0). Plasma samples were analyzed after precipitation with ethanol by liquid chromatography mass spectrometry (LC-MS/MS). Mean plasma concentrations were used for calculation of the pharmacokinetic parameters.
Plasma terminal elimination half-life (t1/2) was determined as In(2)/λz, where λz is the magnitude of the slope of the log linear regression of the log concentration versus time profile during the terminal phase.

[2] = Assessment of chemical stability in 40 mM buffers at 40° C. (RP-HPLC); assay type: physicochemical; settings: 1 mg/mL; for % degradation after 72 h at 40° C. pH4 acetate: acetate buffer pH 4, 72 h; for % degradation after 72 h at 40° C. pH6 phosphate: phosphate buffer pH 6, 72 h; for % degradation after 14 days at 40° C. pH6 phosphate: phosphate buffer pH 6, 14 days; for % degradation after 72 h at 40° C. pH7 phosphate: phosphate buffer pH 7, 72 h; for % degradation after 14 days at 40° C. pH7 phosphate: phosphate buffer pH 7, 14 days
Procedure, shortened: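 Peptides at 1 mg/mL in 40 mM acetate pH 4 or phosphate pH 6 and 7 were held at 40° C for 3 and 14 days. Main-peak area-% by C8 RP-HPLC, UV 220 nm; % degradation = change in main-peak area-% versus t=0.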

[3] = molecular target: T1, recombinant human amylin 3 receptor (hAMYR3) (Homo sapiens, UniProt O60896+P30988); experiment: hAMYR3 cAMP assay (AlphaScreen) in 1321N1 cells; assay type: cell-based; settings: cAMP formation, 45 min stimulation
T1 construct: host or cells: human astrocytoma cell line 1321N1
T1 sequence (P30988 25-474): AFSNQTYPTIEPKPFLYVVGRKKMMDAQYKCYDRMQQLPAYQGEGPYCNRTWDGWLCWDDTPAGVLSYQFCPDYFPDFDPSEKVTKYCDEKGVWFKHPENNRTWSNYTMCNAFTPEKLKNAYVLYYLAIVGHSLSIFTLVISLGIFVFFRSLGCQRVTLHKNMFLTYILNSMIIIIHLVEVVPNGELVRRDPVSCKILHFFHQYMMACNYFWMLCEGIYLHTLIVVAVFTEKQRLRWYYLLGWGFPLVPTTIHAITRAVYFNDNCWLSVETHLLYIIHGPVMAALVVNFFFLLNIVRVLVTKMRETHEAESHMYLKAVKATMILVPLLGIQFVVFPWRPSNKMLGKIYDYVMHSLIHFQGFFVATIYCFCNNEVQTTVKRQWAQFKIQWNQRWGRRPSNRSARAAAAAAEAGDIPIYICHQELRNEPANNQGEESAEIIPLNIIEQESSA
T1 sequence (O60896 24-148 partner): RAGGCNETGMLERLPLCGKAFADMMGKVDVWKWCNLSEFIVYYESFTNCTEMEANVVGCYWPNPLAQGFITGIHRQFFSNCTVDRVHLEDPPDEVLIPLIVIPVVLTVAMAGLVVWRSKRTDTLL
Procedure, shortened: (§1)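 1321N1 astrocytoma cells expressing recombinant human calcitonin receptor alone or with RAMP3 (AMY3) stimulated 45 min at room temperature with peptide in IBMX-containing buffer. cAMP quantified by AlphaScreen after 1 h bead incubation; EC50 fitted from at least 7 concentrations.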

[4] = Effect on acute food intake and body weight in normal Sprague Dawley rats; assay type: in vivo, Sprague Dawley (SD) rats; settings: Dose: 30 nmol/kg sc, vehicle-corrected
[5] = Assessment of physical stability: fibril formation by Thioflavin T fluorescence; assay type: physicochemical; parameters: key: FND = fibrillation not detected; FD = fibrillation detected; settings: 1 mg/mL peptide; for Fibrillation (in buffer) pH4 acetate: 50 mM acetate buffer pH 4.0, 96 hours at 40° C.; for Fibrillation (in buffer) pH7 histidine: 50 mM histidine buffer pH 7.0, 96 hours at 40° C.; for Fibrillation (in buffer) pH7 phosphate: 50 mM phosphate buffer pH 7.0, 96 hours at 40° C.
Procedure, shortened: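 Test peptide at 1 mg/mL with 40 μM ThT in 50 mM phosphate pH 7.0, 50 mM histidine pH 7.0, or 50 mM acetate pH 4.0, in triplicate. Fluorescence read every 10 min after 300 s agitation for 96 hours at 40° C; significant intensity rise scored as fibrillation detected (FD).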

[6] = molecular target: T2, recombinant human calcitonin receptor (hCT-R) (Homo sapiens, UniProt P30988); experiment: hCT-R cAMP assay (AlphaScreen) in 1321N1 cells; assay type: cell-based; settings: cAMP formation, 45 min stimulation
T2 construct: host or cells: human astrocytoma cell line 1321N1
T2 sequence (P30988 25-474): T1 sequence (P30988 25-474)
Procedure, shortened: as §1

Row | Structure (SMILES) | half-life [1] [h] | % degradation after 72 h at 40° C. pH4 acetate [2] [%] | % degradation after 72 h at 40° C. pH6 phosphate [2] [%] | % degradation after 14 days at 40° C. pH6 phosphate [2] [%] | % degradation after 72 h at 40° C. pH7 phosphate [2] [%] | % degradation after 14 days at 40° C. pH7 phosphate [2] [%] | EC50 [3] [nM] | Body weight reduction in % at 48 h [4] [%] | Food intake reduction in % at 48 h [4] [%] | Fibrillation (in buffer) pH4 acetate [5] | Fibrillation (in buffer) pH7 histidine [5] | Fibrillation (in buffer) pH7 phosphate [5] | EC50 [6] [nM] | % degradation after 14 days at 40° C. pH4 acetate ([2]; acetate buffer pH 4, 14 days) [%]
1 | CC[C@H](C)[C@@H](C(=O)N[C@@H](CC(C)C)C(=O)N[C@@H](CO)C(=O)N[C@@H](CO)C(=O)N[C@H](C(=O)N[C@@H](CCC(=O)O)C(=O)N[C@H](C(=O)NCC(=O)N[C@@H](CO)C(=O)N[C@@H](CC(N)=O)C(=O)N[C@H](C(=O)N1C[C@H](O)C[C@H]1C(N)=O)[C@@H](C)O)C(C)C)[C@@H](C)O)N(C)C(=O)[C@H](C)NC(=O)CN(C)C(=O)[C@H](Cc1ccccc1)NC(=O)[C@H](CO)NC(=O)[C@H](CO)NC(=O)[C@H](CCCNC(=N)N)NC(=O)[C@H](CCC(N)=O)NC(=O)[C@H](CC(C)C)NC(=O)[C@H](Cc1ccccc1)NC(=O)[C@H](CCCC(=O)O)NC(=O)[C@H](C)NC(=O)[C@H](CC(C)C)NC(=O)[C@H](CCCNC(=N)N)NC(=O)[C@H](CCC(=O)O)NC(=O)[C@@H](NC(=O)[C@H](C)NC(=O)[C@@H]1CCCNC(=O)C[C@H](NC(=O)[C@H](CCCNC(=N)N)NC(=O)CC[C@H](NC(=O)CCCCCCCCCCCCCCCCCCC(=O)O)C(=O)O)C(=O)NCC(=O)N[C@@H]([C@@H](C)O)C(=O)N[C@@H](C)C(=O)N[C@@H]([C@@H](C)O)C(=O)N1)[C@@H](C)O [Compound 20, [19CD]-isoGlu-RD()GTAT-Orn()-ATERLA-Aad-FLQRSSF-Gly(Me)-A-Ile(Me)-LSSTEVGSNT-Hyp-NH2] ({C20 diacid-γGlu}-RDGTAT[Orn]ATERLA[Aad]FLQRSSF[Sar]A[NMeI]LSSTEVGSNT[Hyp]-NH2; lactam 2-7) | 31.1 | 1.0 | 1.3 | <1 | 2.0 | 3.7 | 0.003 | 7.8 | 49 | FD | FND | FND | 0.009 | –
2 | CC[C@H](C)[C@@H](C(=O)N[C@@H](CC(C)C)C(=O)N[C@@H](CO)C(=O)N[C@@H](CO)C(=O)N[C@H](C(=O)N[C@@H](CCC(=O)O)C(=O)N[C@H](C(=O)NCC(=O)N[C@@H](CO)C(=O)N[C@@H](CC(N)=O)C(=O)N[C@H](C(=O)N1C[C@H](O)C[C@H]1C(N)=O)[C@@H](C)O)C(C)C)[C@@H](C)O)N(C)C(=O)[C@H](C)NC(=O)CN(C)C(=O)[C@H](Cc1ccccc1)NC(=O)[C@H](CO)NC(=O)[C@H](CO)NC(=O)[C@H](CCCNC(=N)N)NC(=O)[C@H](CCC(N)=O)NC(=O)[C@H](CC(C)C)NC(=O)[C@H](Cc1ccccc1)NC(=O)[C@H](CCCC(=O)O)NC(=O)[C@H](C)NC(=O)[C@H](CC(C)C)NC(=O)[C@H](CCCNC(=N)N)NC(=O)[C@H](CCC(=O)O)NC(=O)[C@@H](NC(=O)[C@H](C)NC(=O)[C@@H]1CCCCNC(=O)C[C@H](NC(=O)[C@H](CCCNC(=N)N)NC(=O)CC[C@H](NC(=O)CCCCCCCCCCCCCCCCCCC(=O)O)C(=O)O)C(=O)NCC(=O)N[C@@H]([C@@H](C)O)C(=O)N[C@@H](C)C(=O)N[C@@H]([C@@H](C)O)C(=O)N1)[C@@H](C)O [Compound 35, [19CD]-isoGlu-RD()GTATK()ATERLA-Aad-FLQRSSF-Gly(Me)-A-Ile(Me)-LSSTEVGSNT-Hyp-NH2] ({C20 diacid-γGlu}-RDGTATKATERLA[Aad]FLQRSSF[Sar]A[NMeI]LSSTEVGSNT[Hyp]-NH2; lactam 2-7) | 36.1 | <1 | <1 | <1 | 1.4 | <1 | 0.028 | 12 | 72 | FND | FND | FND | 0.066 | 2
